Where a name gives a salt, the structure may show the parent alone.
Assays:
[1] = human, clinical data [28]; cited from earlier work
[2] = tested on: MDA-MB-231 orthotopic xenograft; test: Histological analysis (H&E) and collagen quantification of explanted tumors; type: in vivo, NU/NU nude mice; conditions: H&E sections of explanted tumors, 55 days post treatment; control 5%
Protocol: (§1) Explanted mice organs (heart, liver, spleen, kidneys, lungs, tibia) and tumors were washed twice with PBS, embedded in a cryomold in O.C.T. (Tissue-Tek® O.C.T. Compound, Sakura® Finetek), and frozen at −80 degree. Ten μm-thick slides were obtained cutting tissues block with a cryostat at −20 degree. The slides were then stored at −20 degree until the analysis.
(§2) Hematoxylin and eosin (H&E) staining was performed to evaluate the efficacy and safety of Lipo-EPI-LOX compared to the other treatment groups. Briefly the organs and tumor slides were thawed, hydrated and stained with H&E following the manufacturer's instructions. The stained slides were analyzed with an optical Zeiss Axioskop microscope (Carl Zeiss, Gottingen, Germany) equipped with a Polaroid camera.
Tumors frozen 5-μm-thick slides were fixed for 5 min in formalin 10% solution, then washed and stained with Weigert's haematoxylin. Then the sections were stained with 0.1% (Direct Red 80) (Sigma Aldrich) picrosirius red in saturated aqueous solution of picric acid. The stained slides were analyzed with the NIS Elements software (Nikon Corporation, Tokyo, Japan).

[3] = tested on: collagen scaffold cultured with MDA-MB-231; test: Mechanical testing: stiffness of collagen scaffolds under unconfined uniaxial compression; type: cell-based, human; conditions: 72 h of treatment; CTR 67.3 kPa
From the text: As previously described, an in-house built instrument prototype was developed by the inventors to apply a state of unconfined uniaxial compression to the collagen scaffolds. The applied stress (r, in kPa) could then be analyzed by dividing the applied force by the cross section of the sample. The applied force consisted of a pre-load of 1.41 kPa held constantly for 30 s; the full load of 5.97 kPa was then constantly applied for 30 s. The stiffness (compressive modulus, in kPa) of the collagen scaffold cultured with MDA-MB-231 and exposed for 72 h to all treatment groups was computed as the ratio between the increment of stress and increment of strain from the preload to the full load values. The samples were analyzed in air immediately after having been removed from the PBS where they were soaked. Five samples of each type were tested and each specimen was tested 10 times.

[4] = Safety: body weight change and H&E histology of hearts; type: in vivo, NU/NU nude mice
Protocol: (§3) Tumor size and body weight were measured with caliper and a digital balance once a week. Tumor volume was calculated according to the formula (W×W×L)/2, where W and L represent the width and the length of tumor, respectively. Body weight change % was calculated were calculated by comparing weights at the start and end of therapy throught the formula throught the formula weight DO/weight D33%.
as §1, §2

[5] = tested on: MDA-MB-231 orthotopic xenograft; test: In vivo drug testing: tumor growth in orthotopic xenograft (caliper and BLI); design: species or system NU/NU nude mice; conditions: weekly i.v. 3.24 mg/Kg; caliper; mean ± spread
Protocol: MDA-MB-231 labeled with luciferase probe (2×10^6 cells/100 μl matrigel) were orthotopically injected into the right mammary fad pad of female immunodeficient NU/NU nude mice [NU-Foxn1nu] 8-10 weeks old (Charles River Laboratories, Wilmington, MA, USA). NU/NU nude mice were housed five per cage at the HMRI animal facility, there were maintained under pathogen free conditions and on low-fluorescence diet according to the National Institutes of Health guidelines.
as §3
Furthermore, the impact on tumor growth was validated by performing bioluminescence imaging (BLI) of TNBC tumors at Day 0 and Day 33 (FIG. 4B, Figure S4 supportive information). This was performed in order to support the caliper measurements since the bioluminescent signal obtained from BLI is directly related to the viability of cells and could serve as metric to evaluate impact of therapy. The BLI quantification percentage was calculated throught the formula BLI DO/BLI D33%. […]

[6] = tested on: MDA-MB-231 orthotopic xenograft; test: Survival study (Kaplan-Meier); type: in vivo, NU/NU nude mice; conditions: 55 days post treatment
Protocol: Mice (n=10 per cohort) were sacrificed when the tumor volume reached 2000 mm^3 or when showing signs of morbidity. Data were analyzed using the Kaplan-Meier method. Comparisons among different treatment groups were performed using the log rank test for trend and considered significant with a p value less than 0.05.

Q: For `COc1cccc2c1C(=O)c1c(O)c3c(c(O)c1C2=O)C[C@@](O)(C(=O)CO)C[C@@H]3O[C@H]1C[C@H](N)[C@@H](O)[C@H](C)O1` [Free EPI, epirubicin hydrochloride], which plasma peak concentration [1] is on record?
A: 3.4 µg/mL

Q: What about the necrotic tumor cells [2] of the same compound?
A: 20%

Q: And the “average compressive modulus (scaffold stiffness)” value [3]?
A: 64.38 kPa

Q: And the “inflammatory infiltrate in myocardial tissue (cardiotoxicity)” value ([4]; H&E hearts)?
A: increment of cellularity due to the inflammatory infiltrate

Q: What about the “increase in body weight” value ([4]; end of study, D33 versus D0, CTR 3.3%) of the same compound?
A: 3.7%

Q: And the “tumor volume (tumor growth)” value [5]?
A: 1029 mm^3

Q: And the survival [6]?
A: less than 50%

— patent US20240050587A1, “LIPOSOMES COMPRISING ANTI-LOX ANTIBODY” (ISTITUTO SCIENTIFICO ROMAGNOLO PER LO STUDIO E LA CURA DEI …, priority 2019, published 2024)
